Where two headings read alike, the source gives them in different places.
Key:
Assay in all cases: Ras GTP binding domain inhibition assay (Cy3-GTP/Cy5-GTP competition)
[1] = system: KRas Q61H mutant; design: species or system human; details: 20 μM; for KRas Q61H mutant + SOS: % inh.: with SOS (Table 7A); for KRas Q61H mutant: % inh.: without SOS (Table 7A)
Procedure, shortened: (§1)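 His-tagged Ras proteins were captured on nickel-coated wells in Buffer-I (25 mM Tris-HCl pH 7.4, 27 mM KCl, 137 mM NaCl, 1 mM MgCl2, 1 mM DTT) or Buffer-II (50 mM Tris-HCl pH 7.0). Compounds (20 μM or serial dilution, 1% DMSO) were incubated 3 h at RT, ±Sos(556-1049) in the final hour. Bound Cy3-/Cy5-GTP (100 nM, 45 min) was read after washing.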

[2] = system: KRas wild type; design: species or system human; details: 20 μM; for KRas wild type + SOS: % inh.: with SOS (Table 7A); for KRas wild type % inh.: without SOS (Table 7A)
Procedure, shortened: as §1

[3] = system: KRas G12C mutant; design: species or system human; details: 20 μM; for KRas G12C mutant + SOS: % inh.: with SOS (Table 7A); for KRas G12C mutant: % inh.: without SOS (Table 7A)
Procedure, shortened: as §1

[4] = target: T1, KRas G12D mutant (Homo sapiens, UniProt P01116, G12D); details: 20 μM
T1 construct: fused on or other part: His tag, used for capture on nickel-coated plates
Procedure, shortened: as §1

[5] = with SOS (Table 7A), read-out: KRas G12D mutant + SOS: % inh.
[6] = without SOS (Table 7A), read-out: KRas G12D mutant: % inh.

KRas Q61H mutant + SOS: % inh. [1]	KRas Q61H mutant: % inh. [1]	KRas wild type + SOS: % inh. [2]	KRas wild type % inh. [2]	KRas G12C mutant + SOS: % inh. [3]	KRas G12C mutant: % inh. [3]	inhibition at 20 µM [4, 5]	inhibition at 20 µM [4, 6]	SMILES
D (76-100% inhibition)	D (76-100% inhibition)	D (76-100% inhibition)	C (51-75% inhibition)	D (76-100% inhibition)	C (51-75% inhibition)	51 to 75%	26 to 50%	COc1cccc(-c2sc3nc(-c4nccn4C)nc(N[C@H]4C[C@@H](OC)C4)c3c2-c2ccccc2)c1F [drawing 891]
D (76-100% inhibition)	D (76-100% inhibition)	D (76-100% inhibition)	D (76-100% inhibition)	D (76-100% inhibition)	D (76-100% inhibition)	76 to 100%	51 to 75%	CO[C@H]1C[C@@H](Nc2nc(-c3nccn3C)nc3sc(-c4cnn(C)c4)c(-c4ccccc4)c23)C1 [drawing 892]
B (26-50% inhibition)	C (51-75% inhibition)	A (1-25% inhibition)	A (1-25% inhibition)	B (26-50% inhibition)	B (26-50% inhibition)	26 to 50%	26 to 50%	Cn1ccc(-c2sc3nc(-c4nccn4C)nc(O)c3c2-c2ccccc2)n1 [drawing 904]
D (76-100% inhibition)	C (51-75% inhibition)	D (76-100% inhibition)	C (51-75% inhibition)	D (76-100% inhibition)	C (51-75% inhibition)	51 to 75%	26 to 50%	CO[C@H]1C[C@H](Nc2nc(-c3nccn3C)nc3sc(-c4ccn(C)n4)c(-c4ccccc4)c23)C1 [drawing 906]
D (76-100% inhibition)	C (51-75% inhibition)	C (51-75% inhibition)	C (51-75% inhibition)	C (51-75% inhibition)	C (51-75% inhibition)	51 to 75%	26 to 50%	CN(C)CCOCCNc1nc(-c2nccn2C)nc2sc(-c3ccn(C)n3)c(-c3ccccc3)c12 [drawing 907]
0 (0% inhibition)	A (1-25% inhibition)	0 (0% inhibition)	A (1-25% inhibition)	A (1-25% inhibition)	A (1-25% inhibition)	0%	0%	Cn1ccc(-c2sc3nc(-c4nccn4C)nc(N[C@H]4C[C@@H](O)C4)c3c2-c2ccccc2)n1 [drawing 908]
B (26-50% inhibition)	C (51-75% inhibition)	A (1-25% inhibition)	B (26-50% inhibition)	B (26-50% inhibition)	B (26-50% inhibition)	26 to 50%	26 to 50%	CO[C@H]1C[C@@H](Nc2nc(-c3ncc[nH]3)nc3sc(-c4ccn(C)n4)c(-c4ccccc4)c23)C1 [drawing 910]
C (51-75% inhibition)	B (26-50% inhibition)	C (51-75% inhibition)	C (51-75% inhibition)	C (51-75% inhibition)	C (51-75% inhibition)	51 to 75%	26 to 50%	CO[C@H]1CC[C@@H](Nc2nc(-c3ncc[nH]3)nc3sc(-c4ccn(C)n4)c(-c4ccccc4)c23)C1 [drawing 911]
D (76-100% inhibition)	D (76-100% inhibition)	D (76-100% inhibition)	D (76-100% inhibition)	D (76-100% inhibition)	C (51-75% inhibition)	51 to 75%	51 to 75%	CO[C@H]1CC[C@@H](Nc2nc(-c3nccn3C)nc3sc(-c4ccn(C(C)C)n4)c(-c4ccccc4)c23)C1 [drawing 912]

Second part, the compound before the results:

SMILES	KRas Q61H mutant + SOS: % inh. [1]	KRas Q61H mutant: % inh. [1]	KRas wild type + SOS: % inh. [2]	KRas wild type % inh. [2]	KRas G12C mutant + SOS: % inh. [3]	KRas G12C mutant: % inh. [3]	inhibition at 20 µM [4, 5]	inhibition at 20 µM [4, 6]
COC1CCN(c2nc(-c3nccn3C)nc3sc(-c4cccc(O)c4F)c(-c4ccccc4)c23)C1 (centres unmarked) [drawing 890]	C (51-75% inhibition)	B (26-50% inhibition)	C (51-75% inhibition)	B (26-50% inhibition)	C (51-75% inhibition)	A (1-25% inhibition)	51 to 75%	1 to 25%
COc1cccc(-c2sc3nc(-c4nccn4C)nc(NC4CCC(OC)C4)c3c2C)c1F (centres unmarked) [drawing 893]	C (51-75% inhibition)	C (51-75% inhibition)	C (51-75% inhibition)	C (51-75% inhibition)	C (51-75% inhibition)	D (76-100% inhibition)	51 to 75%	76 to 100%
COC1CCC(Nc2nc(-c3nccn3C)nc3sc(-c4cccc5[nH]ncc45)c(C)c23)C1 (centres unmarked) [drawing 895]	D (76-100% inhibition)	B (26-50% inhibition)	D (76-100% inhibition)	B (26-50% inhibition)	D (76-100% inhibition)	B (26-50% inhibition)	51 to 75%	26 to 50%
COCCn1ccnc1-c1nc(O)c2scc(-c3ccc(OCC(C)C)nc3)c2n1 [drawing 898]	C (51-75% inhibition)	D (76-100% inhibition)	C (51-75% inhibition)	C (51-75% inhibition)	C (51-75% inhibition)	C (51-75% inhibition)	51 to 75%	51 to 75%
CC(C)COc1ccc(-c2csc3c(O)nc(-c4nccn4Cc4ccccn4)nc23)cn1 [drawing 899]	D (76-100% inhibition)	C (51-75% inhibition)	C (51-75% inhibition)	D (76-100% inhibition)	C (51-75% inhibition)	C (51-75% inhibition)	51 to 75%	76 to 100%
COc1cccc(Cn2ccnc2-c2nc(O)c3scc(-c4ccc(OCC(C)C)nc4)c3n2)c1 [drawing 900]	C (51-75% inhibition)	C (51-75% inhibition)	B (26-50% inhibition)	C (51-75% inhibition)	B (26-50% inhibition)	C (51-75% inhibition)	51 to 75%	51 to 75%
CO[C@H]1CC[C@@H](Nc2nc(-c3nccn3C)nc(C(=O)N3CCc4c(O)cccc4C3)c2C)C1 [drawing 901]	B (26-50% inhibition)	B (26-50% inhibition)	A (1-25% inhibition)	B (26-50% inhibition)	A (1-25% inhibition)	B (26-50% inhibition)	26 to 50%	26 to 50%
CO[C@H]1C[C@@H](Nc2nc(-c3ccccn3)nc3sccc23)C1 [drawing 902]	C (51-75% inhibition)	D (76-100% inhibition)	C (51-75% inhibition)	C (51-75% inhibition)	C (51-75% inhibition)	C (51-75% inhibition)	51 to 75%	51 to 75%
CO[C@H]1C[C@@H](Nc2nc(-c3nccn3C)nc3sccc23)C1 [drawing 903]	D (76-100% inhibition)	D (76-100% inhibition)	D (76-100% inhibition)	C (51-75% inhibition)	D (76-100% inhibition)	D (76-100% inhibition)	76 to 100%	76 to 100%
COc1nc(-c2ccccn2)nc2c(-c3ccccn3)csc12 [drawing 913]	A (1-25% inhibition)	B (26-50% inhibition)	A (1-25% inhibition)	B (26-50% inhibition)	A (1-25% inhibition)	A (1-25% inhibition)	1 to 25%	26 to 50%
